Where a name gives a salt, the structure may show the parent alone.
Molecular target: T1, AMPA receptor (human GluR1 flip/stargazin expressed in CHO-K1 cells) (Homo sapiens, UniProt P42261)
T1 construct: expressed in transfected cells; host or cells: CHO-K1
Assay: AMPA receptor function enhancing activity using calcium influx as index
Assay type: cell-based
Settings: change in fluorescence level in 3 min, 100% = 3 mM glutamic acid + 300 μM cyclothiazide, 0% = 3 mM glutamic acid only
Excerpt: Human GluR1 flip cDNA was amplified by PCR using forward primer […] (SEQ ID NO: 1) and reverse primer […] (SEQ ID NO: 2) artificially synthesized using human brain-derived cDNA (BD Bio science) as a template. The amplified product was digested with restriction enzymes EcoRI, NotI (TAKARA SHUZO CO. LTD.), and incorporated into the same site of pcDNA3.1(+) (Invitrogen) to construct pcDNA3.1(+)/human GluR1 flip gene. Human stargazin cDNA was amplified by PCR using forward primer […] (SEQ ID NO: 3) and reverse primer. […] (SEQ ID NO: 4) artificially synthesized using human hippocampus cDNA as a template. The amplified product was digested with restriction enzymes XhoI, BamHI (TAKARA SHUZO CO. LTD.), and incorporated into the same site of pcDNA3.1(−) (Invitrogen) to construct pcDNA3.1 Zeo(−)/human stargazin gene.
(2) Construction of GluR1 Flip/Stargazin Expressing Cell
CHO-K1 cells passaged in a culture medium (Ham's F12 medium (Invitrogen) added with 10% inactivated fetal bovine serum (Morgate) and penicillin, streptomycin (Invitrogen)) were detached with 0.05% trypsin, 0.53 mM EDTA (Invitrogen) diluted with D-PBS(−). The detached cells were suspended in a culture medium, and recovered by a centrifugation operation at 1,000 rpm. The recovered cells were suspended again in D-PBS(−), and added to a 0.4 cm electroporation cuvette (BioRad). pcDNA3.1(+)/human GluR1 flip gene (5 μg) and pcDNA3.1 Zeo(−)/human stargazin gene (15 μg) were added, and the mixture was introduced into CHO-K1 cells using Gene Pulser II (BioRad) under the conditions of 950 μFd, […]. The introduced cells were cultured overnight in a culture medium and, the next day, plated in a 96 well plate at 250 cells/well using a selection medium (culture medium added with Zeocin (Invitrogen) to 250 μg/mL). Clones showing drug resistance were selected, and GluR1 flip/stargazin expressing clones were selected by an assay method using calcium influx as an index as shown below.
(3) Measurement Method of AMPA Receptor Function Enhancing Activity of Compound Using Calcium Influx as Index
CHO-K1/GluR1 flip/stargazin expressing cells were plated on a 384 well black transparent bottom plate (FMAT4307723) at 0.5×10^4 cells/well, and cultured in a 37° C., CO2 incubator (SANYO Electric Co., Ltd.) for 2 days. The medium in the cell plate was removed, and a calcium indicator (Calcium 4 Assay Kit, Molecular. Devices) containing 1.25 mM probenecid (Invitrogen) was added at 25 μL/well and the well was left standing in 37° C., CO2 incubator for 1 hr. The cell plate was set in FLITRtetra (Molecular Devices), a mixture (12.5 μL) of 9 mM glutamic acid diluted with assay buffer B (HBSS (Invitrogen), 0.1% BSA, 10 mM HEPES) and a test compound was added, and the amount of change in fluorescence level in 3 min was measured. In the definition here, the amount of change in fluorescence level of well added with glutamic acid at final concentration 3 mM and 300 μM cyclothiazide (TOCRIS) is 100%, the amount of change in fluorescence level of well added only with glutamic acid at final concentration 3 mM is 0%, and the compound activity was calculated according to the following formula. activity (%)=(X−C)/(T−C)×100 T: amount of change in fluorescence level of well added with glutamic acid at final concentration 3 mM and 300 μM cyclothiazide C: amount of change in fluorescence level of well added only with glutamic acid at final concentration 3 mM X: amount of change in fluorescence level of well added with to test compound

T1 sequence (P42261 19-906 isoform P42261-2 limits assumed): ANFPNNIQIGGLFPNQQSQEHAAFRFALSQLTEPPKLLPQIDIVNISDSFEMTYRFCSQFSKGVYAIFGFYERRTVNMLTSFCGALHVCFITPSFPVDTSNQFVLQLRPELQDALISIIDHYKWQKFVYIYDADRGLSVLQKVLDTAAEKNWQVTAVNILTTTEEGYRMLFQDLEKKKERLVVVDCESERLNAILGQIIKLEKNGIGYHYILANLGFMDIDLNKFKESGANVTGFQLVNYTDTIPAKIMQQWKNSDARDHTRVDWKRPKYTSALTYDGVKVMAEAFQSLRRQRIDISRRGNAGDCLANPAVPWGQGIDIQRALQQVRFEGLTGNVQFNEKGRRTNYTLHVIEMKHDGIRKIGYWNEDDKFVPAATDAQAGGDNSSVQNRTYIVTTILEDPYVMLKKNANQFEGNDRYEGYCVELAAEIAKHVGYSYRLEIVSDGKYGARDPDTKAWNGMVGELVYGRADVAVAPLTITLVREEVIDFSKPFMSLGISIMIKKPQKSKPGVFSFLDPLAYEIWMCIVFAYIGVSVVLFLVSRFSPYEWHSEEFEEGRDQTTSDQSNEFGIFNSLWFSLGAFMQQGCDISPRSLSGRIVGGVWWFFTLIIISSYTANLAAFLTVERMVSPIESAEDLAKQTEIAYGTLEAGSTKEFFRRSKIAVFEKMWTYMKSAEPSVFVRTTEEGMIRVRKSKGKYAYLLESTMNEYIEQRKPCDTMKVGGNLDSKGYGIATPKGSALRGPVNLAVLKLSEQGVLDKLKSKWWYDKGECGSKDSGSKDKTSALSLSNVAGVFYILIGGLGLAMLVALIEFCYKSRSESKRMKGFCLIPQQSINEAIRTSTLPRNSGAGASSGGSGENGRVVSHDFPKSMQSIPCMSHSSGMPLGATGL
T1 sequence (Q9Y698 whole entry partner): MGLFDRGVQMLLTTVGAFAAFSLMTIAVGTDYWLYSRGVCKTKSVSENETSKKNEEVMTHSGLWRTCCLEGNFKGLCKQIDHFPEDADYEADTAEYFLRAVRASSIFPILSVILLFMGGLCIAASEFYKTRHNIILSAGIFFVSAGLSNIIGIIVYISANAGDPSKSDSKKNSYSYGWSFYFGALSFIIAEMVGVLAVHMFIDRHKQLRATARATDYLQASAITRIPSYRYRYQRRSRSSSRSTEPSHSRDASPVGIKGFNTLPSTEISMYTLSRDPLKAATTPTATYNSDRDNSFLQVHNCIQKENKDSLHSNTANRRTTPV

Row | Structure (SMILES) | activity (%)
1 | CCS(=O)(=O)N[C@H]1CCCO[C@@H]1COc1ccc(-c2ncc(F)cn2)cc1 [Example 399, 1,5-anhydro-2,3,4-trideoxy-4-[(ethylsulfonyl)amino]-6-O-[4-(5-fluoropyrimidin-2-yl)phenyl]-D-erythro-hexitol] | 94%
2 | CCS(=O)(=O)N[C@H]1CCOC[C@@H]1COc1ccc(C(C)C)cc1 (relative stereo) [Example 34, trans-N-{3-[(4-isopropylphenoxy)methyl]tetrahydro-2H-pyran-4-yl}ethanesulfonamide] | 77%
3 | CCS(=O)(=O)N[C@H]1CCOC[C@@H]1COc1ccc(-n2cc(C)cn2)cc1 (relative stereo) [Example 134, trans-N-[3-{[4-(4-methyl-1H-pyrazol-1-yl)phenoxy]methyl}tetrahydro-2H-pyran-4-yl]ethanesulfonamide] | 92%
4 | CCS(=O)(=O)N[C@H]1CCOC[C@@H]1COc1ccc(OC(F)F)cc1 (single isomer, unassigned) [Example 124, trans-N-[3-{[4-(difluoromethoxy)phenoxy]methyl}tetrahydro-2H-pyran-4-yl]ethanesulfonamide] | 81%
5 | CCS(=O)(=O)N[C@H]1CCOC[C@@H]1COc1ccc(-c2cc(C)on2)c(F)c1 [Example 248, N-[(3R,4S)-3-{[3-fluoro-4-(5-methylisoxazol-3-yl)phenoxy]methyl}tetrahydro-2H-pyran-4-yl]ethanesulfonamide] | 87%
6 | CCS(=O)(=O)N[C@H]1CCCC[C@@H]1COc1ccc(OC(F)F)cc1 (relative stereo) [Example 52, trans-N-[2-{[4-(difluoromethoxy)phenoxy]methyl}cyclo-hexyl]ethanesulfonamide] | 69%
7 | O=S(=O)(N[C@H]1CCOC[C@@H]1COc1ccc(-c2ccc(F)cn2)c(F)c1)C1CC1 (racemic) [Example 243, N-[(3RS,4SR)-3-{[3-fluoro-4-(5-fluoropyridin-2-yl)phenoxy]methyl}tetrahydro-2H-pyran-4-yl]cyclopropanesulfonamide] | 96%
8 | O=S(=O)(N[C@H]1CCOC[C@@H]1COc1ccc(-c2ncc(Cl)s2)cc1)C1CC1 [Example 312, N-[(3R,4S)-3-{[4-(5-chloro-1,3-thiazol-2-yl)phenoxy]methyl}tetrahydro-2H-pyran-4-yl]cyclopropanesulfonamide] | 91%
9 | CCS(=O)(=O)N[C@H]1CCOC[C@@H]1COc1ccc(-c2ccc(F)cn2)c(F)c1 (single isomer, unassigned) [Example 313, N-[(3R,4S)-3-{[3-fluoro-4-(5-fluoropyridin-2-yl)phenoxy]methyl}tetrahydro-2H-pyran-4-yl]ethanesulfonamide or N-[(3S,4R)-3-{[3-fluoro-4-(5-fluoropyridin-2-yl)phenoxy]methyl}tetrahydro-2H-pyran-4-yl]ethanesulfonamide] | 99%
10 | CS(=O)(=O)N[C@H]1CCOC[C@@H]1COc1ccc(-c2ccc(F)cn2)c(F)c1 (single isomer, unassigned) [Example 477, N-[(3R,4S)-3-{[3-fluoro-4-(5-fluoropyridin-2-yl)phenoxy]methyl}tetrahydro-2H-pyran-4-yl]methanesulfonamide or N-[(3S,4R)-3-{[3-fluoro-4-(5-fluoropyridin-2-yl)phenoxy]methyl}tetrahydro-2H-pyran-4-yl]methanesulfonamide] | 68%
11 | Cc1cc(-c2ccc(OC[C@H]3COCC[C@@H]3NS(C)(=O)=O)cc2)nn1C (racemic) [Example 281, N-[(3RS,4SR)-3-{[4-(1,5-dimethyl-1H-pyrazol-3-yl)phenoxy]methyl}tetrahydro-2H-pyran-4-yl]methanesulfonamide] | 64%
12 | CCS(=O)(=O)N[C@H]1CCCC[C@@H]1COc1ccc(-n2cccn2)cc1 (relative stereo) [Example 60, trans-N-[2-{[4-(1H-pyrazol-1-yl)phenoxy]methyl}cyclohexyl]ethane-sulfonamide] | 80%
13 | CCS(=O)(=O)N[C@H]1COCC[C@@H]1COc1ccc(C(C)C)cc1 (single isomer, unassigned) [Example 110, trans-N-[4-{[4-(1-methylethyl)phenoxy]methyl}tetrahydro-2H-pyran-3-yl]ethanesulfonamide] | 88%
14 | CS(=O)(=O)N[C@H]1CCSC[C@@H]1COc1ccc(C2CCOCC2)cc1 [Example 519, N-((3S,4S)-3-((4-(tetrahydro-2H-pyran-4-yl)phenoxy)methyl)tetrahydro-2H-thiopyran-4-yl)methanesulfonamide] | 88%
15 | O=S(=O)(N[C@H]1CCOC[C@@H]1COc1ccc(-c2ncc(Cl)cc2F)cc1)C1CC1 (racemic) [Example 262, N-[(3RS,4SR)-3-{[4-(5-chloro-3-fluoropyridin-2-yl)phenoxy]methyl}tetrahydro-2H-pyran-4-yl]cyclopropanesulfonamide] | 89%
16 | CCS(=O)(=O)N[C@H]1CCCC[C@@H]1COc1ccc(C(C)C)cc1 (relative stereo) [Example 8, trans-N-[2-{[4-(1-methylethyl)phenoxy]methyl}cyclohexyl]ethanesulfonamide] | 79%
17 | CCS(=O)(=O)N[C@H]1CCOC[C@@H]1COc1ccc(C2CC2)cc1 (relative stereo) [Example 7, trans-N-{3-[(4-cyclopropylphenoxy)methyl]tetrahydro-2H-pyran-4-yl}ethanesulfonamide] | 91%
18 | CS(=O)(=O)N[C@H]1CCOC[C@@H]1COc1ccc(-n2cccn2)c(F)c1F [Example 425, N-[(3R,4S)-3-{[2,3-difluoro-4-(1H-pyrazol-1-yl)phenoxy]methyl}tetrahydro-2H-pyran-4-yl]methanesulfonamide hydrochloride] | 96%
19 | Cc1cnc(-c2ccc(OC[C@H]3OCCC[C@@H]3NS(=O)(=O)C3CC3)cc2)s1 (racemic) [Example 192, 1,5-anhydro-4-[(cyclopropylsulfonyl)amino]-2,3,4-trideoxy-6-O-[4-(5-methyl-1,3-thiazol-2-yl)phenyl]-DL-erythro-hexitol] | 74%
20 | CS(=O)(=O)N[C@@H]1CCOC[C@H]1COc1ccc(-c2ncc(Cl)cc2F)cc1 (single isomer, unassigned) [Example 382, N-[(3S,4R)-3-{[4-(5-chloro-3-fluoropyridin-2-yl)phenoxy]methyl}tetrahydro-2H-pyran-4-yl]methanesulfonamide or N-[(3R,4S)-3-{[4-(5-chloro-3-fluoropyridin-2-yl)phenoxy]methyl}tetrahydro-2H-pyran-4-yl]methanesulfonamide] | 59%
21 | CCS(=O)(=O)N[C@H]1CCOC[C@@H]1COc1ccc(-c2cccnc2C)cc1 (racemic) [Example 322, N-[(3RS,4SR)-3-{[4-(2-methylpyridin-3-yl)phenoxy]methyl}tetrahydro-2H-pyran-4-yl]ethanesulfonamide] | 91%
22 | CCS(=O)(=O)N[C@H]1CCOC[C@@H]1COc1ccc(-n2cc(Cl)cn2)c(F)c1 (racemic) [Example 489, N-[(3RS,4SR)-3-{[4-(4-chloro-1H-pyrazol-1-yl)-3-fluorophenoxy]methyl}tetrahydro-2H-pyran-4-yl]ethanesulfonamide] | 99%
23 | CCS(=O)(=O)N[C@H]1CCCC[C@@H]1COc1ccc(C(C)=O)cc1 (relative stereo) [Example 89, trans-N-{2-[(4-acetylphenoxy)methyl]cyclohexyl}ethane-sulfonamide] | 75%

Source: patent US9527807B2, “Sulfonamide derivative and use thereof” (Takeda Pharmaceutical Company Limited, priority 2011, dated 2016)
